Values after ≈ are worked out from the molar mass of the structure shown. Where a SMILES comes first, the peptide text is derived from it. [ ]: non-standard residue; d: D form. Met(O) = CS(=O)CC[C@H](N)C(=O)O
Test system: P388
Test: Cytotoxicity against mouse P388 cells
Assay type: functional
Settings: read-out: ED50 (the source's name)

In the case of `CC[C@H](C)[C@@H]1NC(=O)[C@H](C)NC(=O)[C@H](CC[S+](C)[O-])NC(=O)[C@H](C)NC(=O)[C@H](CC(=O)OC)NC(=O)[C@H](Cc2ccccc2)NC(=O)[C@@H]2CCCN2C1=O` (stereo partly specified) [PHAKELLISTATIN 14] (cyclo(AIPFD(OMe)A[Met(O)])), the EC50 is reported as 5 µg/mL (≈ 6.44 µM).
